Among the data in PubChem BioAssay (NCI) are TGI and GI50 values, retold here.

Test systems include CAKI-1 renal; HCC-2998 colon; HCT-15 colon; HOP-62 NSCLC; OVCAR-3 ovarian; SF-539 CNS; SNB-19 CNS; SNB-75 CNS; SK-MEL-28 melanoma.
Holding throughout (assay): NCI anticancer screen, dose series, 48 h

SMILES strings stand for the structures.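 Where inhibition never reached the appropriate level, the endpoint shown equals the highest concentration tested. Otherwise, values were interpolated linearly from a five-concentration, 48-hour dose response in 96-well plates. GI50: concentration for 50% inhibition of growth. At the TGI there is no net growth.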

Regarding `CC(CC(=O)N1C(=O)C(C)(C)[C@@H](O)[C@H]1CC(C)C(Cl)(Cl)Cl)C(Cl)(Cl)Cl` (some centres undefined), the TGI in the experiment with CAKI-1 renal, in the experiment on HCC-2998 colon, in the experiment on HCT-15 colon, in the experiment with HOP-62 NSCLC, in the experiment with OVCAR-3 ovarian and in the experiment on SF-539 CNS was more than 100 µM throughout. Besides, the TGI in the experiment with SNB-19 CNS and in the experiment with SNB-75 CNS was more than 100 µM in each case.

Regarding `COc1cc(/C=C(\NC(=O)c2ccccc2)c2nc3ccc4c(c3[nH]2)C(=O)c2ccccc2C4=O)cc(OC)c1OC`, the TGI with CAKI-1 renal, with HCC-2998 colon, with HCT-15 colon, in the experiment on HOP-62 NSCLC, in the experiment on OVCAR-3 ovarian and in the experiment with SF-539 CNS was more than 100 µM each time. Further, the TGI in the experiment on SK-MEL-28 melanoma was more than 100 µM; with SNB-19 CNS it was more than 100 µM; in the experiment on SNB-75 CNS, 75.3 µM.

As to `COc1cc(Oc2c(C)c(Cl)c(OC)c(Cl)c2OC)c2c(c1Cl)COC2=O`, the TGI in the experiment on CAKI-1 renal, in the experiment with HCC-2998 colon, in the experiment on HCT-15 colon, with SF-539 CNS, with SK-MEL-28 melanoma and in the experiment on SNB-19 CNS was more than 100 µM each time. The compound further returned a TGI with SNB-75 CNS of more than 100 µM.

Turning to `COc1ccc(/C=C2\CN(C(=O)C(Cl)Cl)C/C(=C\c3ccc(OC)cc3)C2=O)cc1`, in the experiment with HCC-2998 colon, the GI50 is 1.02 µM and the TGI is 2.2 µM. In the experiment with HCT-15 colon, the GI50 was 0.337 µM and the TGI was 1.52 µM.

As to `O=C1C(=O)N(c2ccc(Cl)cc2)C(=O)C(=O)C1c1nc2ccccc2o1`, the TGI in the experiment with CAKI-1 renal, in the experiment with HCC-2998 colon, in the experiment on HCT-15 colon, in the experiment with HOP-62 NSCLC, in the experiment on OVCAR-3 ovarian and with SF-539 CNS was more than 100 µM throughout. Further, the TGI in the experiment with SK-MEL-28 melanoma, in the experiment on SNB-19 CNS and with SNB-75 CNS was more than 100 µM in each case.

In the case of `O=S(=O)([O-])c1ccc(N=Cc2ccccc2[O-])cc1.O=S(=O)([O-])c1ccc(N=Cc2ccccc2[O-])cc1.[Co+2]`, the GI50 in the experiment with HCC-2998 colon was 79.1 µM; in the experiment with HCT-15 colon, more than 100 µM; in the experiment with SF-539 CNS, 84 µM; with SK-MEL-28 melanoma, 59.5 µM; with SNB-19 CNS it was more than 100 µM; in the experiment with SNB-75 CNS it was more than 100 µM. In addition, the TGI in the experiment with HCC-2998 colon, with HCT-15 colon, in the experiment on SF-539 CNS, with SK-MEL-28 melanoma, with SNB-19 CNS and in the experiment on SNB-75 CNS was more than 100 µM each time.

As for `CN1CN(C2OC(CO)C(O)C2O)c2nc(N)[nH]c(=O)c21` (centres undefined), the TGI with CAKI-1 renal, with HCC-2998 colon, in the experiment with HCT-15 colon, with HOP-62 NSCLC, in the experiment with OVCAR-3 ovarian and in the experiment with SF-539 CNS was more than 100 µM each time. Further, the TGI with SNB-19 CNS and in the experiment with SNB-75 CNS was more than 100 µM throughout.

Regarding `COc1cc(-c2nccc3cc(OC)c(OC)cc23)ccc1O`, the TGI in the experiment on CAKI-1 renal is more than 100 µM; in the experiment on HCC-2998 colon, more than 100 µM; in the experiment on HCT-15 colon it was 96.1 µM; with HOP-62 NSCLC, more than 100 µM; in the experiment with OVCAR-3 ovarian, more than 100 µM; in the experiment on SF-539 CNS, more than 100 µM. The TGI in the experiment with SK-MEL-28 melanoma, in the experiment on SNB-19 CNS and in the experiment on SNB-75 CNS was more than 100 µM throughout.

On to `CCC[CH2][Sn]([CH2]CCC)([O]c1cccc2cccnc12)[O]c1cccc2cccnc12`, for which the GI50 was 0.2 µM in the experiment on CAKI-1 renal; 0.36 µM in the experiment with HCC-2998 colon; 0.167 µM in the experiment with HCT-15 colon; 6.31 µM in the experiment with HOP-62 NSCLC; 0.167 µM with OVCAR-3 ovarian; 0.219 µM in the experiment on SF-539 CNS. Also, the GI50 with SK-MEL-28 melanoma was 0.146 µM; with SNB-19 CNS, 0.312 µM; in the experiment on SNB-75 CNS, 0.156 µM. The TGI came out at 0.718 µM in the experiment with CAKI-1 renal; 0.842 µM with HCC-2998 colon; 0.339 µM in the experiment with HCT-15 colon; 19.2 µM in the experiment on HOP-62 NSCLC; 0.324 µM in the experiment with OVCAR-3 ovarian; 0.514 µM in the experiment with SF-539 CNS. The TGI in the experiment with SK-MEL-28 melanoma was 0.332 µM; with SNB-19 CNS, 0.873 µM; in the experiment with SNB-75 CNS, 0.563 µM.

For `CCCCCOCC(O)CO` (centres undefined), the TGI with CAKI-1 renal, in the experiment on HCT-15 colon, in the experiment on HOP-62 NSCLC, in the experiment on OVCAR-3 ovarian, in the experiment on SF-539 CNS and in the experiment on SK-MEL-28 melanoma was more than 100 µM in each case. Besides, the TGI in the experiment on SNB-19 CNS is more than 100 µM.

As to `CC(C)N(O)C(=N)c1ccccc1`, the TGI in the experiment with CAKI-1 renal, in the experiment with HCC-2998 colon, in the experiment on HOP-62 NSCLC, with SF-539 CNS, in the experiment with SK-MEL-28 melanoma and in the experiment with SNB-19 CNS was more than 100 µM in each case. The same compound gave a TGI in the experiment on SNB-75 CNS of more than 100 µM.

Consider `C[C@]12CCC(=O)C(OC(=O)c3ccc([N+](=O)[O-])cc3)=C1CCC2=O`, for which the TGI in the experiment on CAKI-1 renal, with HCC-2998 colon, with HCT-15 colon, with HOP-62 NSCLC, in the experiment on OVCAR-3 ovarian and with SF-539 CNS was more than 100 µM throughout. Also, the TGI in the experiment with SK-MEL-28 melanoma, in the experiment on SNB-19 CNS and in the experiment with SNB-75 CNS was more than 100 µM each time.

In the case of `N#CC(C(=O)C(=O)Nc1ccccc1)c1ccccc1` (centres undefined), the TGI in the experiment with CAKI-1 renal, in the experiment on HCT-15 colon, in the experiment on OVCAR-3 ovarian, with SF-539 CNS, with SK-MEL-28 melanoma and with SNB-19 CNS was more than 100 µM in each case. In the experiment on SNB-75 CNS, this compound returned a TGI of more than 100 µM.

On to `C=C(CO)CC(O)c1cc(OC)ccc1OC` (centres undefined), for which the TGI in the experiment with CAKI-1 renal, in the experiment on HCC-2998 colon, with HCT-15 colon, in the experiment with HOP-62 NSCLC, in the experiment on OVCAR-3 ovarian and in the experiment with SF-539 CNS was more than 100 µM throughout. In addition, the TGI in the experiment with SK-MEL-28 melanoma, with SNB-19 CNS and with SNB-75 CNS was more than 100 µM each time.

On to `Cc1ccc(-c2nc3ccccc3c(=O)n2NCC2(O)OCC(O)C(O)C2O)cc1` (centres undefined), for which the TGI in the experiment with CAKI-1 renal, with HCT-15 colon, in the experiment with OVCAR-3 ovarian, in the experiment with SF-539 CNS, with SK-MEL-28 melanoma and in the experiment on SNB-19 CNS was more than 100 µM throughout. For the same compound, in the experiment on SNB-75 CNS, the TGI is more than 100 µM.

On to `CC(C)C12Cc3c(ccc4ccccc34)OC1(C)Oc1ccc3ccccc3c1C2` (centres undefined), for which the TGI in the experiment on CAKI-1 renal, in the experiment with OVCAR-3 ovarian, with SF-539 CNS, with SNB-19 CNS and in the experiment on SNB-75 CNS was more than 100 µM throughout.

For the compound `COC(OC)c1cc2c(cc1C=O)OCO2`, the TGI with CAKI-1 renal, in the experiment with HCC-2998 colon, with HOP-62 NSCLC, in the experiment with OVCAR-3 ovarian, in the experiment on SF-539 CNS and with SK-MEL-28 melanoma was more than 100 µM each time. Also, the results for the TGI in the experiment with SNB-19 CNS and with SNB-75 CNS were more than 100 µM and 54.7 µM, respectively.

Take `O=C(O)C[C@@H](Cl)[C@H](NC(=O)OCc1ccccc1)C(=O)O`: the TGI with CAKI-1 renal, with HCC-2998 colon, with HCT-15 colon, with HOP-62 NSCLC, with OVCAR-3 ovarian and with SF-539 CNS was more than 100 µM in each case. The TGI in the experiment with SK-MEL-28 melanoma, in the experiment on SNB-19 CNS and with SNB-75 CNS was more than 100 µM in each case.

Consider `COC(=O)c1ccccc1N(C(=O)c1ccccc1)c1ccccc1C`, for which the TGI with CAKI-1 renal, with HCC-2998 colon, in the experiment on HCT-15 colon, in the experiment with HOP-62 NSCLC, with OVCAR-3 ovarian and in the experiment on SK-MEL-28 melanoma was more than 100 µM throughout. The TGI in the experiment on SNB-19 CNS and in the experiment with SNB-75 CNS was more than 100 µM throughout.

With `N#CC12CCC1C1CCCCC12N1CCSCC1` (centres undefined), the TGI in the experiment with CAKI-1 renal, with HCC-2998 colon, with HCT-15 colon, in the experiment with HOP-62 NSCLC, with OVCAR-3 ovarian and in the experiment with SF-539 CNS was more than 100 µM in each case. The TGI in the experiment on SK-MEL-28 melanoma, in the experiment on SNB-19 CNS and in the experiment with SNB-75 CNS was more than 100 µM each time.

For `N.N.N.N.N.NC(=O)[O-].[Co+3].[I-]`, the GI50 with HCC-2998 colon, in the experiment on HCT-15 colon, in the experiment with HOP-62 NSCLC, in the experiment with OVCAR-3 ovarian, in the experiment with SF-539 CNS and in the experiment with SK-MEL-28 melanoma was more than 100 µM throughout. For the same compound, the GI50 is more than 100 µM with SNB-19 CNS and 18.7 µM in the experiment with SNB-75 CNS. Moreover, the TGI in the experiment on HCC-2998 colon, in the experiment on HCT-15 colon, in the experiment with HOP-62 NSCLC, in the experiment with OVCAR-3 ovarian, in the experiment with SF-539 CNS and with SK-MEL-28 melanoma was more than 100 µM throughout. The TGI in the experiment with SNB-19 CNS and in the experiment with SNB-75 CNS was more than 100 µM in each case.

`COc1cc(OC)c(C(=O)c2cccs2)cc1N`: the TGI with CAKI-1 renal, in the experiment on HCC-2998 colon, with HCT-15 colon, in the experiment on HOP-62 NSCLC, in the experiment on OVCAR-3 ovarian and in the experiment on SF-539 CNS was more than 100 µM throughout. Moreover, the TGI in the experiment on SK-MEL-28 melanoma, with SNB-19 CNS and with SNB-75 CNS was more than 100 µM each time.
